Assay results: paper PMC11359531, “Establishment of Dissolution Test Method for Multi-Components in Traditional Chinese Medicine Preparations Based on In Vitro–In Vivo Correlation” (Pharmaceuticals, 2024)
Converted amounts (≈) assume the structure as drawn. “And” between values parts separate entries of the source, which are not always exact repeats. Identical values can stand only once.

Tests used:
[1] = Dissolution test of Q-markers in YZTs, paddle method, and fitting of dissolution profiles; assay type: physicochemical; details: for Best-fitted dissolution model, Functions: YZTs, 75 rpm
Procedure: The dissolution of five Q-markers in YZTs was evaluated using the paddle method in accordance with the Chinese Pharmacopoeia. […] The dissolution tests were conducted at a temperature of 37 ± 0.5 °C and a paddle speed of 75 rpm. Add 6 tablets to each dissolving cup, accompanied by 900 mL of dissolving solution, in 6 parallel aliquots, and samples of 3 mL were collected at 15, 30, 45, 60, 90, 120, 180, 240, and 360 min, respectively. Taking into account the gastric emptying time, the end time of dissolution measurement was 180 min when taking 0.1 M of HCl as dissolution medium. The dissolution medium was replenished after each sampling. The samples were filtered through 0.22 μm membrane and analyzed using the HPLC method described in Section 3.2. The chromatographic results were processed to calculate the concentration of each component at different time points, and the dissolution results were calculated using Equation (3) as follows:(3) D=(CnV1+V2∑i=1n−1Cn−1)×100%/M
Cn is the drug concentration at time point n; V1 is the volume of dissolution medium in the dissolution cup; V2 is the volume of the sample removed at each time point; M is the total drug content.
The Phoenix WinNonlin IVIVC Toolkit provides Hill, Weibull, and Makoid Banakar functions to fit the average dissolution of each component in each dissolved medium. The best-fitting model was selected according to the highest correlation coefficient (R) and the smallest Akaike information criterion (AIC) value in the fitting results.
Hill:(4) Fdiss,vitro=Finf×t^b/MDT^b+t^b
Weibull:(5) Fdiss,vitro=Finf×(1−exp[−t−tlag/MDT]^b)
Makoid Banakar:(6) Fdiss,vitro=Fmax×(t/Tmax)^b×exp[b×(1−t/Tmax)] for t≤T_max (7) Fdiss,vitro=Fmax for t>Tmax where Fdiss,vitro is the fitting fraction dissolved at time t, Finf is the fraction dissolved at time infinity (fixed as 1), MDT is the average dissolution time (hours), Fmax is the maximum in vitro dissolution value, tlag is the lag time, Tmax is the time corresponding to the maximum in vitro dissolution value, and b is the shape parameters.

[2] = Stability of Q-markers in plasma; design: species or system dog; details: n = 6
Procedure: The standard solutions of tetrahydropalmatine, corydaline, protopin, α-allocryptopine, and byakangelicin were prepared by dissolving them in acetonitrile to obtain a mixed standard stock solution, which was further diluted with acetonitrile to prepare a series of different concentration gradient mixed standard solutions. An internal standard solution of 25 ng/mL was prepared from betamethasone solution (500 μg/mL) diluted with acetonitrile. Blank dog blood was collected through intravenous blood sampling, and plasma was obtained by centrifugation. To prepare the standard plasma sample, 25 μL of the mixed standard solution was added to 100 μL of blank plasma, and 400 μL of acetonitrile was added and vortexed for protein precipitation. The supernatant was acquired by centrifugation and blown dry with nitrogen. Then, 100 μL of acetonitrile was added to the dried supernatant, and the resulting solution was mixed to gain the standard plasma sample. Different mixed standard solution including a serial of concentrations of tetrahydropalmatine: 0.625–25 ng/mL, corydaline: 0.625–25 ng/mL, protopin: 0.1–4 ng/mL, α-allocryptopine: 0.1–4 ng/mL, byakangelicin: 18.75–750 ng/mL were applied to prepare standard plasma sample and quality control (QC) samples of plasma as follows: 1.25, 5, and 20 ng/mL for tetrahydropalmatine and corydaline, […], and 37.5, 150, and 600 ng/mL for byakangelicin.

[3] = Caco-2 transport assay (Peff); details: human
[4] = Unit impulse response (UIR) fitting of pharmacokinetic data; details: best-fitted UIR, Akaike model
Excerpt: The Phoenix WinNonlin IVIVC tool was utilized to evaluate the relationship between in vivo drug dissolution rate and blood drug concentration, which utilizes the Unit Impulse Response (UIR) function for this purpose. By using intravenous administration as the input for the unit impulse response, the influence of drug absorption can be eliminated. The obtained UIR function will be utilized for the deconvolution of pharmacokinetic data to obtain the curve of cumulative drug absorption over time [50]. (8) Y(t)=A×exp[Alpha×(t×Ka−tlag)] in which Y(t) is unit impulse response, A is the coefficient value, Alpha is the exponential value, Ka is the absorption rate constant, tlag is the lag time.

[5] = Solubility of Q-markers in dissolution media, dose number D0; details: for solubility at 24 h: thermodynamic from solid
Procedure: The solubility of the compounds was determined at physiologically relevant pH values (0.1 M of HCl, pH 1.2; acetate buffer, pH 4.5; and phosphate buffer, pH 6.8) as those in dissolution medium, by adding excess compounds to specific medium, vortexing for 30 s, and shaking for 24 h at 37 °C and 120 rpm using a constant temperature shaker. The supernatant was then diluted with an appropriate amount of methanol, and the concentration of each compound was determined using the HPLC method described in Section 3.2. The solubility was evaluated using the dose (D0) values [48], which describe the relationship between solubility and maximum dose strength according to Equation (1). […] (1) D0=M0/V0/CS
M0 was the highest dose of each component under single administration, it should be noted that since there is no sense of the maximum oral dose for the ingredients in herbal preparation, the content of each component in a single dose of the preparation is taken as the maximum administered dose.

[6] = External validation of IVIVC model with another brand of YZTs; details: beagle, dog, blood, po
Excerpt: In order to further apply the identified in vivo correlated dissolution conditions to different batches of YZTs, another brand of YZTs was selected for external validation of the dissolution conditions and IVIVC model results. The dissolution data of different brands in the identified media were input into the established IVIVC model to obtain the predicted blood concentration–time curve and to compare the PE% between the predicted value and the actual value.

[7] = 0.1 M HCl, 37 °C, pH 1.2, simulated gastric fluid
[8] = D0 = M0/V0/Cs, V0 = 250 mL, content of a single dose of YZTs
[9] = acetate buffer, 37 °C, pH 4.5, aqueous buffer
[10] = phosphate buffer, 37 °C, pH 6.8, aqueous buffer

Compound | Best-fitted dissolution model, Functions ([1]; Acetate buffer) | Best-fitted dissolution model, Functions ([1]; Phosphate buffer) | Relative content ([2]; 0.2 ng/mL, 6℃-6h) | Relative content ([2]; 0.2 ng/mL, 20℃-24h) | Relative content ([2]; 0.2 ng/mL, Freeze-thaw thrice) | Relative content ([2]; 0.5 ng/mL, 6℃-6h) | Relative content ([2]; 0.5 ng/mL, 20℃-24h) | Relative content ([2]; 0.5 ng/mL, Freeze-thaw thrice) | Relative content ([2]; 3.2 ng/mL, 6℃-6h) | Papp at 120 min [3] | UIR parameter A1, Estimate [4] | UIR parameter Ka, Estimate [4] | UIR parameter Tlag, Estimate [4] | UIR parameter alpha1, Estimate [4] | solubility at 24 h [5, 7] | solubility at 24 h [5, 9] | solubility at 24 h [5, 10] | solubility at 24 h ([5]; water) | AUC [6] | Cmax [6] | further results
COc1ccc2c(c1OC)CN(C)CCc1cc3c(cc1C(=O)C2)OCO3 [α-allocryptopine] | y(t) = 0.86 × (1 − exp[−(t/1.26)^1.97]) | y(t) = 0.60 × (1 − exp[−(t/1.29)^1.78]) | 91.78% | 100.07% | 100.00% | 100.95% | 101.06% | 100.99% | 107.49% | 134 nm/s | 0 ng/mL | 5.65 h⁻¹ | 0.67 h | 1.13 h⁻¹ | 0.0487 ± 0.00408 mg/mL (≈ 132 µM) | 0.0458 ± 0.00256 mg/mL (≈ 124 µM) | 0.0447 ± 0.00217 mg/mL (≈ 121 µM) | 2.38 ± 0.521 mg/mL (≈ 6430 µM) | 0.00204 µg·h/mL | 0.0005 µg/mL | released within 6 h ([1]; from YZTs, phosphate buffer and artificial intestinal fluid, paddle 75 rpm): less than 60%; Relative content ([2]; 3.2 ng/mL, 20℃-24h): 98.70%; Relative content ([2]; 3.2 ng/mL, Freeze-thaw thrice): 98.63%; D0, 0.1 M HCl [5, 8]: 0.5441 and <1; D0, Acetate Buffer [5, 8]: 0.5786 and <1; D0, Phosphate Buffer [5, 8]: 0.5928 and <1
COc1cc2c(cc1OC)[C@H]1[C@@H](C)c3ccc(OC)c(OC)c3CN1CC2 [Corydaline, corydaline] | y(t) = 0.71 × (1 − exp[−(t/1.23)^2.04]) | y(t) = 0.25 × (1 − exp[−(t/1.94)^2.82]) | – | – | – | – | – | – | – | 39.4 nm/s | 0.05 ng/mL | 1.46 h⁻¹ | 0.44 h | 1.42 h⁻¹ | > 2.39 mg/mL | > 2.39 mg/mL | 2.39 ± 0.348 mg/mL (≈ 6460 µM) | 0.00503 ± 0.00085 mg/mL (≈ 13.6 µM) | 0.0343 µg·h/mL | 0.012 µg/mL | Best-fitted dissolution model, Functions ([1]; 0.1 M HCl): y(t) = 0.79 × (1 − exp[−(t/1.06)^2.00]); Best-fitted dissolution model, Functions ([1]; FaSSIF-V2): y(t) = 0.15 × (1 − exp[−(t/3.14)^1.77]); Relative content ([2]; 1.25 ng/mL, 6℃-6h): 98.22%; Relative content ([2]; 1.25 ng/mL, 20℃-24h): 98.02%; Relative content ([2]; 1.25 ng/mL, Freeze-thaw thrice): 97.95%; Relative content ([2]; 5 ng/mL, 6℃-6h): 93.89%; Relative content ([2]; 5 ng/mL, 20℃-24h): 102.35%; Relative content ([2]; 5 ng/mL, Freeze-thaw thrice): 102.28%; Relative content ([2]; 20 ng/mL, 6℃-6h): 107.01%; Relative content ([2]; 20 ng/mL, 20℃-24h): 100.80%; Relative content ([2]; 20 ng/mL, Freeze-thaw thrice): 100.73%
protopine | – | y(t) = 0.62 × (1 − exp[−(t/1.50)^1.63]) | 99.33% | 96.07% | 96.00% | 93.89% | 100.60% | 100.53% | 103.43% | – | – | – | – | – | – | – | – | – | – | – | Best-fitted dissolution model, Functions ([1]; 0.1 M HCl): y(t) = 0.70 × (1 − exp[−(t/1.10)^2.06]); Best-fitted dissolution model, Functions ([1]; FaSSGF): y(t) = 0.82 × (1 − exp[−t^1.01]); Relative content ([2]; 3.2 ng/mL, 20℃-24h): 101.63%; Relative content ([2]; 3.2 ng/mL, Freeze-thaw thrice): 101.56%
COc1c2ccoc2c(OC[C@@H](O)C(C)(C)O)c2oc(=O)ccc12 [Byakangelicin, byakangelicin] | – | – | – | – | – | – | – | – | – | 89.5 nm/s | 0.02 ng/mL | 2.23 h⁻¹ | 0.45 h | 1.18 h⁻¹ | 2.66 ± 0.056 mg/mL (≈ 7960 µM) | 1.29 ± 0.0874 mg/mL (≈ 3860 µM) | 0.00763 ± 0.00127 mg/mL (≈ 22.8 µM) | 0.0359 ± 0.00585 mg/mL (≈ 107 µM) | 0.0545 µg·h/mL | 0.0295 µg/mL | released ([1]; from YZTs, all other dissolution media than simulated gastric fluid and 0.1 M HCl, paddle 75 rpm): less than 40%; Relative content ([2]; 37.5 ng/mL, 6℃-6h): 90.02%; Relative content ([2]; 37.5 ng/mL, 20℃-24h): 93.00%; Relative content ([2]; 37.5 ng/mL, Freeze-thaw thrice): 92.93%; Relative content ([2]; 150 ng/mL, 6℃-6h): 93.99%; Relative content ([2]; 150 ng/mL, 20℃-24h): 93.39%; Relative content ([2]; 150 ng/mL, Freeze-thaw thrice): 93.32%; Relative content ([2]; 600 ng/mL, 6℃-6h): 88.54%; Relative content ([2]; 600 ng/mL, 20℃-24h): 89.73%; Relative content ([2]; 600 ng/mL, Freeze-thaw thrice): 89.66%
COc1cc2c(cc1OC)[C@@H]1Cc3ccc(OC)c(OC)c3CN1CC2 [Tetrahydropalmatine, tetrahydropalmatine] | – | y(t) = 0.30 × (1 − exp[−(t/2.29)^2.34]) | – | – | – | – | – | – | – | 37.6 nm/s | – | – | – | – | 0.655 ± 0.0433 mg/mL (≈ 1840 µM) | 2.67 ± 0.539 mg/mL (≈ 7500 µM) | 0.0197 ± 0.00187 mg/mL (≈ 55.4 µM) | 0.0189 ± 0.00157 mg/mL (≈ 53.1 µM) | 0.0599 µg·h/mL | 0.0164 µg/mL | Best-fitted dissolution model, Functions ([1]; FaSSIF-V2): y(t) = 0.38 × (1 − exp[−(t/3.48)^1.91]); Relative content ([2]; 1.25 ng/mL, 6℃-6h): 94.31%; Relative content ([2]; 1.25 ng/mL, 20℃-24h): 100.16%; Relative content ([2]; 1.25 ng/mL, Freeze-thaw thrice): 100.09%; Relative content ([2]; 5 ng/mL, 6℃-6h): 99.79%; Relative content ([2]; 5 ng/mL, 20℃-24h): 102.60%; Relative content ([2]; 5 ng/mL, Freeze-thaw thrice): 102.53%; Relative content ([2]; 20 ng/mL, 6℃-6h): 97.35%; Relative content ([2]; 20 ng/mL, 20℃-24h): 100.19%; Relative content ([2]; 20 ng/mL, Freeze-thaw thrice): 100.12%
